Holding throughout (format): functional
One assay relates to DU-145. Briefly: Anticancer activity against human DU145 cells after 72 hrs by sulforhodamine B assay. The conditions noted are these: DU-145, 72 h. (In general: In SRB staining, fixed cells bind dye roughly in proportion to their protein.)
Another assay has as its system KB. Description: Anticancer activity against human KB cells after 72 hrs by sulforhodamine B assay.
The subject of a further assay is HCT-8. Description: Anticancer activity against human HCT8 cells after 72 hrs by sulforhodamine B assay. The conditions noted are these: HCT-8, 72 h.
For the next assay, the system named is A549. Description: Anticancer activity against human A549 cells after 72 hrs by sulforhodamine B assay. The conditions noted are these: A549, 72 h.
Assay [1] in a line: Anticancer activity against human KBVIN cells after 72 hrs by sulforhodamine B assay.

Structures are written as SMILES.

Turning to `CCN1CCN2Cc3c(c4cc(OC)c(OC)cc4c4cc(OC)ccc34)C[C@H]2C1`, the GI50 with DU-145 turned out to be 10.5 µM; with KB, 8.24 µM; in the assay with HCT-8, 9.45 µM; in the assay with A549, 7.13 µM.

With `COc1ccc2c3c(c4cc(OC)c(OC)cc4c2c1)C[C@H]1CN(C(=O)c2ccccc2)CCN1C3`, the GI50 is 15.7 µM in the assay with DU-145, more than 20 µM with KB, 18.1 µM in the assay on HCT-8 and 15 µM in the assay with A549.

As for `COc1ccc2c3c(c4cc(OC)c(OC)cc4c2c1)CC1CCOCCN1C3` (single isomer, unassigned), the GI50 with KB was 0.068 µM.

Take `COc1ccc2c3c(c4cc(OC)c(OC)cc4c2c1)C[C@@H]1CN(N(C)C)CN1C3`: the GI50 worked out at 6.01 µM in the assay with DU-145, 2.38 µM in the assay on KB, 4.15 µM in the assay on A549 and 11 µM in assay [1].

Take `COc1ccc2c3c(c4cc(OC)c(OC)cc4c2c1)C[C@@H]1CN(CC2CC2)CCN1C3`: the concentration for 50% growth inhibition (GI50) was more than 20 µM with DU-145, more than 20 µM in the assay on KB, more than 20 µM in the assay with A549 and 13.4 µM in assay [1].

In the case of `COc1ccc2c3c(c4cc(OC)c(OC)cc4c2c1)C[C@@H]1CN(C(=O)N(C)C)CCN1C3`, the GI50 in the assay on DU-145 was found to be 13.1 µM; in the assay on KB, 12.3 µM; with A549, 14.1 µM; in assay [1], 11.4 µM.

For `COc1ccc2c3c(c4cc(OC)c(OC)cc4c2c1)C[C@H]1CN(S(C)(=O)=O)CCN1C3`, the GI50 with DU-145 is 17 µM; in the assay on KB it was 17.5 µM; in the assay on HCT-8 it was 17.8 µM; with A549, 14.5 µM.

As for `COc1ccc2c3c(c4cc(OC)c(OC)cc4c2c1)C[C@@H]1CCN(N(C)C)CN1C3`, the GI50 was 3 µM in the assay on DU-145, 2.84 µM in the assay with KB, 5.2 µM in the assay on A549 and 5.3 µM in assay [1].

As for `COc1ccc2c3c(c4cc(OC)c(OC)cc4c2c1)C[C@H]1CN(P(=O)(OC)OC)CCN1C3`, the 50% growth inhibitory concentration (GI50) came out at 14.7 µM with DU-145, 8.09 µM with KB, 12.2 µM in the assay on A549 and 10.4 µM in assay [1].

With `COc1ccc2c3c(c4cc(OC)c(OC)cc4c2c1)C[C@H]1CN(C)CCN1C3`, the GI50 in the assay with DU-145 is 7.13 µM; in the assay with KB, 5.3 µM; in the assay with HCT-8, 6.45 µM; with A549, 9.73 µM.

Consider `COc1ccc2c3c(c4cc(OC)c(OC)cc4c2c1)C[C@H]1CN(C2CC2)CN1C3`, for which the GI50 was found to be 3.7 µM in the assay with DU-145, 2.71 µM in the assay with KB, 1.85 µM in the assay with HCT-8 and 1.8 µM in the assay with A549.

In the case of `COc1ccc2c3c(c4cc(OC)c(OC)cc4c2c1)C[C@@H]1CCOCN1C3`, the GI50 in the assay with DU-145 was found to be 1.29 µM; with KB, 1.1 µM; with HCT-8, 1.26 µM; in the assay with A549 it was 1.37 µM.

With `COc1ccc2c3c(c4cc(OC)c(OC)cc4c2c1)C[C@@H]1CCN(CCO)CN1C3`, the 50% growth inhibitory concentration (GI50) was 1.46 µM in the assay with DU-145, 2.22 µM with KB, 2.48 µM in the assay on A549 and more than 20 µM in assay [1].

For the molecule `COc1ccc2c3c(c4cc(OC)c(OC)cc4c2c1)C[C@H]1CN(Cc2ccccc2)CN1C3`, the GI50 in the assay on DU-145 came to 4.95 µM; with KB it was 5.7 µM; in the assay on HCT-8 it was 3.63 µM; with A549 it was 5.3 µM.

Turning to `COc1ccc2c3c(c4cc(OC)c(OC)cc4c2c1)C[C@H]1CN(N(C)C)CN1C3`, the GI50 turned out to be 2.26 µM with DU-145, 2.31 µM with KB, 2.01 µM with HCT-8 and 1.67 µM in the assay with A549.

For the molecule `COc1ccc2c3c(c4cc(OC)c(OC)cc4c2c1)C[C@H]1CCN(CC(C)C)CN1C3`, the GI50 with DU-145 was determined as 2.3 µM; with KB, 5.06 µM; in the assay on HCT-8, 1.36 µM; with A549 it was 1.52 µM.

For `COc1ccc2c3c(c4cc(OC)c(OC)cc4c2c1)C[C@H]1CCN(Cc2ccccc2)CN1C3`, the concentration for 50% growth inhibition (GI50) with DU-145, in the assay with KB, with HCT-8 and in the assay with A549 was more than 20 µM in each case.

On to `COc1ccc2c3c(c4cc(OC)c(OC)cc4c2c1)C[C@@H]1CCN(CC(C)C)CN1C3`, for which the 50% growth inhibitory concentration (GI50) with DU-145 is 1.66 µM; with KB, 1.45 µM; with A549 it was 5.11 µM; in assay [1] it was 7.32 µM.

With `COc1ccc2c3c(c4cc(OC)c(OC)cc4c2c1)C[C@H]1CCN(N(C)C)CN1C3`, the GI50 is 2.97 µM in the assay with DU-145, 3.08 µM in the assay on KB, 2.37 µM in the assay on HCT-8 and 1.78 µM in the assay on A549.

On to `COc1ccc2c3c(c4cc(OC)c(OC)cc4c2c1)C[C@H]1CCN(c2ccccc2)CN1C3`, for which the GI50 in the assay with DU-145, in the assay on KB, in the assay with HCT-8 and in the assay on A549 was more than 20 µM each time.

Turning to `COc1ccc2c3c(c4cc(OC)c(OC)cc4c2c1)C[C@H]1CN(C2CC2)CCN1C3`, the 50% growth inhibitory concentration (GI50) in the assay on DU-145 was 17.9 µM; in the assay on KB, more than 20 µM; in the assay on HCT-8, 13 µM; in the assay on A549, more than 20 µM.

On to `COc1ccc2c3c(c4cc(OC)c(OC)cc4c2c1)C[C@H]1CN(CCc2ccccc2)CN1C3`, for which the GI50 worked out at 10.2 µM in the assay with DU-145, 10 µM in the assay on KB, 7.47 µM with HCT-8 and 6.62 µM with A549.

For `COc1ccc2c3c(c4cc(OC)c(OC)cc4c2c1)C[C@H]1CN(CC(C)C)CN1C3`, the GI50 with DU-145 amounted to 6.6 µM; in the assay with KB, 4.4 µM; with HCT-8, 1.82 µM; in the assay with A549, 2 µM.

For the molecule `COc1ccc2c3c(c4cc(OC)c(OC)cc4c2c1)C[C@@H]1CN(Cc2ccccc2)CN1C3`, the GI50 was determined as 4.62 µM with DU-145, 3.41 µM with KB, 2.68 µM in the assay with A549 and 1.87 µM in assay [1].

Consider `COc1ccc2c3c(c4cc(OC)c(OC)cc4c2c1)C[C@H]1CCOCN1C3`, for which the concentration for 50% growth inhibition (GI50) was determined as 1.82 µM in the assay with DU-145, 1.66 µM in the assay on KB, 1.45 µM with HCT-8 and 1.79 µM in the assay on A549.

For `COc1ccc2c3c(c4cc(OC)c(OC)cc4c2c1)C[C@H]1CN(CCO)CN1C3`, the GI50 with DU-145 turned out to be 6.36 µM; in the assay with KB it was 7.83 µM; with HCT-8, 10.8 µM; in the assay with A549 it was 4.41 µM.

Regarding `COc1ccc2c3c(c4cc(OC)c(OC)cc4c2c1)C[C@H]1CN(c2ccccc2)CN1C3`, the GI50 in the assay on DU-145, in the assay on KB, with HCT-8 and in the assay with A549 was more than 20 µM in each case.

Take `COC(=O)N1CCN2Cc3c(c4cc(OC)c(OC)cc4c4cc(OC)ccc34)C[C@H]2C1`: the GI50 in the assay on DU-145 stood at 12.2 µM; in the assay with KB, 11.3 µM; in the assay on HCT-8, 12.1 µM; in the assay on A549, 10.9 µM.

For `COc1ccc2c3c(c4cc(OC)c(OC)cc4c2c1)C[C@H]1CCN(C2CC2)CN1C3`, the GI50 with DU-145 turned out to be 14.3 µM; with KB, 11.5 µM; with HCT-8, 5.73 µM; with A549 it was 4.3 µM.

With `COc1ccc2c3c(c4cc(OC)c(OC)cc4c2c1)C[C@H]1CN(Cc2ccccc2)CCN1C3`, the GI50 was more than 20 µM in the assay with DU-145, 16.9 µM in the assay on KB, more than 20 µM with A549 and 15.2 µM in assay [1].

With `COc1ccc2c3c(c4cc(OC)c(OC)cc4c2c1)C[C@H]1CN(CCO)CCN1C3`, the GI50 in the assay on DU-145 amounted to 12.6 µM; with KB, 8.62 µM; in the assay with HCT-8 it was 7.41 µM; in the assay with A549 it was 14.1 µM.

As to `COc1ccc2c3c(c4cc(OC)c(OC)cc4c2c1)C[C@H]1CNCCN1C3`, the 50% growth inhibitory concentration (GI50) in the assay with DU-145 worked out at 2.08 µM; with KB it was 1.79 µM; with HCT-8, 1.62 µM; with A549 it was 1.73 µM.

Turning to `COc1ccc2c3c(c4cc(OC)c(OC)cc4c2c1)C[C@H]1CN(C(C)=O)CCN1C3`, the concentration for 50% growth inhibition (GI50) in the assay on DU-145 is 11.9 µM; in the assay with KB it was 15.5 µM; in the assay on HCT-8, 13.8 µM; in the assay on A549 it was 11.7 µM.

Turning to `COc1ccc2c3c(c4cc(OC)c(OC)cc4c2c1)C[C@H]1CN(C)CN1C3`, the GI50 in the assay on DU-145 was found to be 2.03 µM; in the assay on KB it was 1.72 µM; with HCT-8, 1 µM; in the assay on A549, 0.66 µM.

In the case of `CCCN1C[C@@H]2Cc3c(c4ccc(OC)cc4c4cc(OC)c(OC)cc34)CN2C1`, the 50% growth inhibitory concentration (GI50) in the assay with DU-145 worked out at 7.38 µM; in the assay with KB, 6.64 µM; with HCT-8 it was 2.71 µM; in the assay with A549, 3.94 µM.

On to `COc1ccc2c3c(c4cc(OC)c(OC)cc4c2c1)C[C@@H]1CN(CC(C)C)CCN1C3`, for which the GI50 was found to be 12.2 µM in the assay with DU-145, 11.2 µM with KB, 12.9 µM in the assay on A549 and 9.96 µM in assay [1].

Consider `COc1ccc2c3c(c4cc(OC)c(OC)cc4c2c1)C[C@H]1CCCCN1C3` [CRYPTOPLEURINE], for which the GI50 with DU-145 came out at 0.00159 µM; with KB, 0.00151 µM; in the assay on HCT-8, 0.00109 µM; with A549, 0.00138 µM.

As to `COc1ccc2c3c(c4cc(OC)c(OC)cc4c2c1)C[C@H]1CCN(CCO)CN1C3`, the GI50 in the assay on DU-145 turned out to be 1.99 µM; in the assay with KB it was 1.59 µM; with HCT-8 it was 10.7 µM; in the assay on A549, 5.68 µM.

For `COc1ccc2c3c(c4cc(OC)c(OC)cc4c2c1)C[C@H]1CN(CC2CC2)CCN1C3`, the GI50 with DU-145 came out at 2.94 µM; in the assay with KB, 6.57 µM; with HCT-8, 0.25 µM; in the assay with A549, 0.79 µM.

With `COc1ccc2c3c(c4cc(OC)c(OC)cc4c2c1)C[C@@H]1COCCN1C3`, the GI50 with DU-145 was determined as 7.05 µM; with KB it was 6.68 µM; with HCT-8, 3.45 µM; in the assay with A549, 14 µM.

In the case of `COc1ccc2c3c(c4cc(OC)c(OC)cc4c2c1)C[C@@H]1CN(C)CN1C3`, the GI50 turned out to be 1 µM in the assay on DU-145, 0.79 µM in the assay on KB, 0.66 µM with HCT-8 and 0.66 µM in the assay on A549.

As to `COC(=O)CN1CCN2Cc3c(c4cc(OC)c(OC)cc4c4cc(OC)ccc34)C[C@H]2C1`, the GI50 was more than 20 µM in the assay on DU-145, 14.7 µM in the assay on KB, 14 µM with HCT-8 and 14.7 µM with A549.

As a reminder, the GI50 is the concentration giving 50% growth inhibition.
